Structures are written as SMILES. Numbers after ± are expanded uncertainties.

For the data set the following is noted: visual observation.

In the case of `CC(O)C(=O)O` (stereo not drawn) [2-hydroxypropanoic acid], the Normal melting temperature (Crystal) is 17 ± 0.17 °C.
Consider `CCn1cc[n+](C)c1.O=S(=O)([N-]S(=O)(=O)C(F)(F)F)C(F)(F)F`, for which the Normal melting temperature (Metastable crystal) is -17.00 ± 2 °C.
Take `CCC(=O)O` [propanoic acid]: the Normal melting temperature (Crystal) is -20.83 ± 0.17 °C.

Source of the values: the NIST ThermoML archive (doi:10.1016/j.fluid.2010.05.013).
